Test system: Vaccinia virus Elstree strain
Format: cell-based

C=O [formaldehyde]
Reference trial inactivation of the virus: 3.13E+00 log DIT C50

Source: patent publication US20240148627A1, “[…] FOR THE SKIN” (priority 2021, published 2024)
